Measured values taken from patent US20120010075A1 (priority 2009, published 2012).
Read-outs that look alike come from different tables or passages of the source.

How the values were obtained:
[1] = tested on: Leptosphaeria nodorum (LEPTNO); experiment: Fungitoxicity of copper-hydrazone mixtures of different ratios towards Leptosphaeria nodorum (Example 35, Table 11); format: cell-based
Procedure: In vitro fungitoxicity assays against LEPTNO were conducted using the copper-minus medium described in Example 26. Mixtures containing hydrazone compound 16 at 200 nM and CuCl2 at 0.2 μM (1:1 molar ratio), 0.8 μM (1:4 ratio), 12.5 μM (1:62.5 ratio) and 200 μM (1:1000 ratio) were prepared in copper-minus medium. Two-fold dilution series of these mixtures were then prepared in 100 μL aliquots of copper-minus medium in flat-bottomed 96-well microtiter plates. A suspension of LEPTNO spores in copper-minus medium at 2×10^5 spores per mL was prepared as in Example 26. Microtiter plates were inoculated with 100 μL of the spore suspension and the plates were incubated at 25° C. for 72 h before assessing fungal growth by measuring light scattering in a NepheloStar plate reader.
(§1) Growth inhibition was determined by comparing growth in the presence of copper-hydrazone mixture with growth in control wells lacking the copper-hydrazone mixture. EC50 values were calculated from dose-response curves, and are expressed as the amounts of hydrazone or copper in each test mixture at the rates providing 50% inhibition of growth as compared to a control lacking the copper-hydrazone mixture.

Phytophthora capsici [2] = experiment: Fungitoxicity of copper-hydrazone mixtures of different ratios towards Phytophthora capsici (Example 36, Table 12); format: cell-based
Procedure: In vitro fungitoxicity assays against Phytophthora capsici were conducted using the copper-minus AS medium described in Example 28. Mixtures containing hydrazone compound 16 at 200 nM and CuCl2.2H2O at 0.2 μM (1:1 molar ratio), 0.8 μM (1:4 ratio), 3.2 μM (1:16 ratio), 12.5 μM (1:62.5 ratio), 50 μM (1:200 ratio) and 200 μM (1:1000 ratio) were prepared in copper-minus AS medium. Two-fold dilution series of these mixtures were then prepared in 100 μL aliquots of copper-minus AS medium in flat-bottomed 96-well microtiter plates. A suspension of P. capsici zoospores in Chelex-treated water at 5×10^4 spores per mL was prepared as in Example 28. Microtiter plates were inoculated with 100 μL of the spore suspension and incubated at 25° C. for 48 h before assessing fungal growth by measuring light scattering in a NepheloStar plate reader.
as §1

Phytophthora capsici [3] = experiment: In vitro fungitoxicity of hydrazones with and without copper towards Phytophthora capsici (Example 28, Table 3); format: cell-based; conditions: CuCl2, 50 μM, no test compound, across experiments
Plasmopara viticola = tested on: Plasmopara viticola; parameters: species or system Plasmopara viticola on grape; conditions: in vivo
[4] = tested on: Septoria tritici isolate USA-184; experiment: In vitro fungitoxicity of hydrazones with and without copper towards Septoria tritici (Example 30, Table 5); format: cell-based; conditions: no test compound
Phytophthora infestans [5] = format: in vivo, Phytophthora infestans on tomato; conditions: Late blight, 160 μM
Ustilago maydis = experiment: In vitro fungitoxicity of hydrazones with and without copper towards Ustilago maydis (Example 29, Table 4); format: cell-based; conditions: CuCl2, 10 μM, no test compound
Phytophthora capsici [6] = experiment: Effect of copper on fungitoxicity of metal-hydrazone complexes towards Phytophthora capsici (Example 34, Table 10); format: cell-based; conditions: CuCl2, 50 μM, no test compound, across experiments
[7] = tested on: Leptosphaeria nodorum (LEPTNO); experiment: Effect of copper on fungitoxicity of metal-hydrazone complexes towards Leptosphaeria nodorum (Example 33, Table 9); format: cell-based; conditions: CuCl2, 10 μM, no test compound, across experiments
Phytophthora infestans [8] = format: in vivo, Phytophthora infestans on tomato (Outdoor Girl); conditions: no hydrazone
[9] = tested on: Leptosphaeria nodorum (LEPTNO); experiment: In vitro fungitoxicity of hydrazones with and without copper towards Leptosphaeria nodorum (Example 26); format: cell-based; conditions: CuCl2 10 μM alone, no test compound; copper-plus versus copper-minus medium across experiments
[10] = CuCl2 without hydrazone, read-out: CuCl2 EC50
[11] = mixture with hydrazone compound 16, Hydrazone:Cu ratio 1 to 1, read-out: CuCl2 EC50 (amount of CuCl2 in mixture at EC50)
[12] = mixture with hydrazone compound 16, Hydrazone:Cu ratio 1 to 4, read-out: CuCl2 EC50 (amount of CuCl2 in mixture at EC50)
[13] = mixture with hydrazone compound 16, Hydrazone:Cu ratio 1 to 62.5, read-out: CuCl2 EC50 (amount of CuCl2 in mixture at EC50)
[14] = mixture with hydrazone compound 16, Hydrazone:Cu ratio 1 to 1000, read-out: CuCl2 EC50 (amount of CuCl2 in mixture at EC50)

O.O.[Cl][Cu][Cl] [CuCl2, CuCl2.2H2O, reference compound]
EC50 [1, 10]: 118 µM | EC50 [1, 11]: 0.072 µM | EC50 [1, 12]: 0.172 µM | EC50 [1, 13]: 1.77 µM | EC50 [1, 14]: 14 µM | EC50 (Phytophthora capsici [2]; [10]): 720 µM | EC50 (Phytophthora capsici [2]; [11]): 0.071 µM | EC50 (Phytophthora capsici [2]; [12]): 0.189 µM | EC50 (Phytophthora capsici [2]; mixture with hydrazone compound 16, Hydrazone:Cu ratio 1 to 16, read-out: CuCl2 EC50 (amount of CuCl2 in mixture at EC50)): 0.441 µM | EC50 (Phytophthora capsici [2]; [13]): 1.04 µM | EC50 (Phytophthora capsici [2]; mixture with hydrazone compound 16, Hydrazone:Cu ratio 1 to 250, read-out: CuCl2 EC50 (amount of CuCl2 in mixture at EC50)): 1.9 µM | EC50 (Phytophthora capsici [2]; [14]): 4.56 µM | % Inhn attributed to copper chloride alone (Phytophthora capsici [3]): 4.5 ± 7.9% | % Control Observed (Plasmopara viticola): 1% | effect of copper chloride alone on growth ([4]; 1 μM): no effect on growth | % Inhibition attributed to copper chloride alone ([4]; CuCl2, 1 μM): 0% | % Control Observed (Phytophthora infestans [5]): 69% | % Inhn. attributed to copper chloride alone (Ustilago maydis): 11.9% | % Inhn. attributed to copper chloride alone (Phytophthora capsici [6]): 4.6% | % Inhn. attributed to copper chloride alone [7]: 3.3% | % Control of Tomato Late Blight (Phytophthora infestans [8]; CuCl2 10 μM alone): 1.7% | % Control of Tomato Late Blight (Phytophthora infestans [8]; CuCl2 50 μM alone): 8.5% | % Control of Tomato Late Blight (Phytophthora infestans [8]; CuCl2 200 μM alone): 38.2% | % Control of Tomato Late Blight (Phytophthora infestans [8]; CuCl2 400 μM alone): 56.0% | % Control of Tomato Late Blight (Phytophthora infestans [8]; CuCl2 800 μM alone): 70.2% | LEPTNO % Inhn. Plus Copper Observed (copper chloride alone) [9]: 7.1 ± 6.0%
